{"source": "patent US20250090538A1", "about": "“TLR7/8-ANTAGONIST FOR TREATING SJÖGREN'S SYNDROME OR MIXED CONNECTIVE TISSUE DISEASE” (Novartis AG, priority 2022, published 2025)", "key": {"[1]": {"system": "TLR7 and TLR8", "assay": "Selectivity for TLR7 and TLR8 over other TLRs and the IL-1 receptor on human PBMCs", "type": "cell-based"}, "[2]": {"assay": "First-in-human study, pharmacokinetics in healthy volunteers (plasma concentration; SAD, MAD, food effect)", "type": "in vivo", "details": "for increase of exposure (plasma concentration) with dose: healthy volunteers", "protocol": "(§1) A first-in-human (FIH) study was conducted to assess the safety and tolerability, pharmacokinetics (PK) and pharmacodynamics (PD) of single and multiple doses of compound of Formula (I) as twice daily (bid) oral administration in healthy volunteers, to support further clinical development of compound of Formula (I) in autoimmune diseases. This study also explored the effect of food intake.\n(§2) First-in-human study in healthy volunteers (HVs) included the following: • Part A was a randomized, subject-blinded, placebo-controlled, single ascending dose (SAD) study with 10 cohorts. Each cohort received in an ascending order a 1 mg, 3 mg, 10 mg, 20 mg, 40 mg, 80 mg, 160 mg, 320 mg, 640 mg or 1000 mg single dose of compound of Formula (I). • Part B was a randomized, subject-blinded, placebo-controlled, multiple ascending dose (MAD) study with 5 cohorts. Each cohort received in an ascending order a 25 mg, 50 mg, 100 mg, 200 mg or 400 mg dose of compound of Formula (I) b.i.d. for 14 days. • Part C was a randomized, open-label, two-sequence, two-period crossover study with a 200 mg dose of compound of Formula (I) administered each underfed or fasted condition, for the food effect evaluation."}, "[3]": {"molecular_target": "T1, TLR7 (Homo sapiens, UniProt Q9NYK1)", "T1 construct": "endogenous in cells; host or cells: B cells in whole blood of healthy human subjects (SAD and MAD cohorts)", "T1 sequence (Q9NYK1 27-1049)": "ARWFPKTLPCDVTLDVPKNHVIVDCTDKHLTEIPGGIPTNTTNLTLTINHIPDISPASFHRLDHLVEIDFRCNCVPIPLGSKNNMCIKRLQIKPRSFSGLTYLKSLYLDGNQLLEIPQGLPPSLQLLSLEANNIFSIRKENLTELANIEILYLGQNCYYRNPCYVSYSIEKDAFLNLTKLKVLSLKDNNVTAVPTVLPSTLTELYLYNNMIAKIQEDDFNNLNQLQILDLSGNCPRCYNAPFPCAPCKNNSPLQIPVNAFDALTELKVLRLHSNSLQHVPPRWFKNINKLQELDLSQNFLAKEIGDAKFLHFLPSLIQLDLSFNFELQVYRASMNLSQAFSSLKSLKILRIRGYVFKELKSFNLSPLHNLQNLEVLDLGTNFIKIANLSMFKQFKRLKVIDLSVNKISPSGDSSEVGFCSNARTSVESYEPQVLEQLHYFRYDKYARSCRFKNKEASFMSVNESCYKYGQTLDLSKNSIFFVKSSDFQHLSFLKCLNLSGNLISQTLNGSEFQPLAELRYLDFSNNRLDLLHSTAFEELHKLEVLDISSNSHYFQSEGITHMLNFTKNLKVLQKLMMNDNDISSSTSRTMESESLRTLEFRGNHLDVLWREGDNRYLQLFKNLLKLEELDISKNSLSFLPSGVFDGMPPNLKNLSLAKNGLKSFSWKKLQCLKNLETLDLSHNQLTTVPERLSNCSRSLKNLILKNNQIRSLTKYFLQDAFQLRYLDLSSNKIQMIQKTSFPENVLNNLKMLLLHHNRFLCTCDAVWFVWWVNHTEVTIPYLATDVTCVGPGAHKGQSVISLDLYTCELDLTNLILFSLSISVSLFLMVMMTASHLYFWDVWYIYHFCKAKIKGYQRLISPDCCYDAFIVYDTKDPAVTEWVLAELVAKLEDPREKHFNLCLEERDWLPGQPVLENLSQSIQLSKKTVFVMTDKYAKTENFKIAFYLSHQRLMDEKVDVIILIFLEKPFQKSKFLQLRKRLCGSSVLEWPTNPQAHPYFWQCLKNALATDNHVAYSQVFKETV", "assay": "Ex-vivo stimulation of whole blood from SAD and MAD cohorts with a TLR7/8 agonist, B cell activation (CD69)", "type": "cell-based", "source_text": "(§3) CD69 and TNF are biomarkers intended to inform the pharmacodynamic (PD) effect of compound of Formula (I). Whole blood samples from the SAD and MAD cohorts were ex-vivo stimulated with a TLR7/8 agonist to increase levels of CD69 and TNF."}, "[4]": {"molecular_target": "T2, TLR8 (Homo sapiens, UniProt Q9NR97)", "T2 construct": "endogenous in cells; host or cells: monocytes in whole blood of healthy human subjects (SAD and MAD cohorts)", "T2 sequence (Q9NR97 27-1041)": "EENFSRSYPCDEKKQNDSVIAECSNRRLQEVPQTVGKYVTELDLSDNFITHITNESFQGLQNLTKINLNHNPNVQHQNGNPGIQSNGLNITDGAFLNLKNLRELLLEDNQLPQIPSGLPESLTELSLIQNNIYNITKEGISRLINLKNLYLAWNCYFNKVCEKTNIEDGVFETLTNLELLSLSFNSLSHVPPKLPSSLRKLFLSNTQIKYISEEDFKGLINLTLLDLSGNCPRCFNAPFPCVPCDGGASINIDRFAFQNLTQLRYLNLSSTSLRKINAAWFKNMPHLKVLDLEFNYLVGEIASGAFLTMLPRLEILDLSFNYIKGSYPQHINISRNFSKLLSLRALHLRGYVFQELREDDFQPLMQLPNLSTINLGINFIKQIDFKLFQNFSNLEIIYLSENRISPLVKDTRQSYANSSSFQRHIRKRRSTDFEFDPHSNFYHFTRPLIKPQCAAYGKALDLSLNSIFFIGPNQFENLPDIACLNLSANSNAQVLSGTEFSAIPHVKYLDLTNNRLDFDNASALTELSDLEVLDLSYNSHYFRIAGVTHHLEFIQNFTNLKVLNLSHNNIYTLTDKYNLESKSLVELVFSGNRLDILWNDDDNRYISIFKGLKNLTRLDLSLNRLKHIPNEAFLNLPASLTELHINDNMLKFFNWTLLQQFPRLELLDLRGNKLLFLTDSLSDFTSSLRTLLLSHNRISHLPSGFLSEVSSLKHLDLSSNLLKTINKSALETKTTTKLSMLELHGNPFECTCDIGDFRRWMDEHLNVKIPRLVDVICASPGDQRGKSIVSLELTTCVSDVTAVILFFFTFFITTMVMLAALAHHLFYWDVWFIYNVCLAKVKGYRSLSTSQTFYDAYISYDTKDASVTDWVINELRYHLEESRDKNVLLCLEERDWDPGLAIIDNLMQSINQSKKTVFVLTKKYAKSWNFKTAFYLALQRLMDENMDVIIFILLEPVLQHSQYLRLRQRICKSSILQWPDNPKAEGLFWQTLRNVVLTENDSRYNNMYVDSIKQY", "assay": "Ex-vivo stimulation of whole blood from SAD and MAD cohorts with a TLR7/8 agonist, monocyte TNF production", "type": "cell-based", "source_text": "as §3"}, "[5]": {"assay": "First-in-human study, safety and tolerability in healthy volunteers", "type": "in vivo", "details": "healthy subjects", "protocol": "as §1, §2"}, "[6]": {"details": "200 mg b.i.d. for 14 days, FIH study"}, "[7]": {"details": "ex-vivo stimulated whole blood, across the dose range (SAD and MAD)"}}, "note": "“Also recorded” adds a separate entry of the source."}
{"compound": "Cc1cc(N2CCc3c(c(C)nn3CC34CCC(NC(=O)[C@@H]5COCCN5)(CC3)CC4)C2)c2cnn(C)c2n1", "note": "[compound of Formula (I), (S)-N-(4-((5-(1,6-dimethyl-1H-pyrazolo[3,4-b]pyridin-4-yl)-3-methyl-4,5,6,7-tetrahydro-1H-pyrazolo[4,3-c]pyridin-1-yl)methyl)bicyclo[2.2.2]octan-1-yl)morpholine-3-carboxamide]", "values": [{"measurement": "selectivity for TLR7 and TLR8 over other TLRs and the IL-1 receptor", "setting": "[1]", "value": "highly selective"}, {"measurement": "Cmax timing under fed condition", "setting": "[2]; 200 mg dose, fed condition, FIG. 3", "value": "slightly delayed Cmax"}, {"measurement": "food effect on exposure", "setting": "[2]; 200 mg dose, fed vs fasted crossover, FIG. 3", "value": "No relevant food effect"}, {"measurement": "increase of exposure (plasma concentration) with dose", "setting": "[2]; multiple ascending dose b.i.d. for 14 days, FIG. 2", "value": "dose-proportional at steady state for the lower doses"}, {"measurement": "half-life", "setting": "[2]; plasma, oral, human, FIH study, maximum value, read-out: terminal half-life", "value": "≤ 14.4", "unit": "h"}, {"measurement": "increase of exposure (plasma concentration) with dose", "setting": "[2]; single ascending dose, oral, FIG. 1", "value": "dose-proportional for the higher doses"}, {"measurement": "TLR7 pathway inhibition", "setting": "[3]; [6]", "value": "full pathway inhibition"}, {"measurement": "B cell activation (upregulation of CD69) following TLR7 stimulation", "setting": "[3]; [7]", "value": "inhibited B cell activation"}, {"measurement": "TLR8 pathway inhibition", "setting": "[4]; [6]", "value": "full pathway inhibition"}, {"measurement": "activation of human monocytes to produce TNF following TLR8 stimulation", "setting": "[4]; [7]", "value": "inhibited activation of human monocytes to produce TNF"}, {"measurement": "safety and tolerability", "setting": "[5]; multiple administrations of up to 400 mg b.i.d. for 14 days", "value": "safe and well tolerated; also recorded: safe and well-tolerated"}, {"measurement": "safety and tolerability", "setting": "[5]; single oral administration of up to 1000 mg", "value": "safe and well tolerated; also recorded: safe and well-tolerated"}]}
